Tests used:
Type in all cases: toxicity, cell-based
U2OS = test: Incucyte cell viability with U2OS; settings: human, 10 µM, compound concentration 10 uM
HEK-293T = test: Incucyte cell viability with HEK293T; settings: human, 10 µM, compound concentration 10 uM
Fibroblast = test: Incucyte cell viability with human fibroblast; settings: 10 µM, compound concentration 10 uM
[1] = 0 h, replicate number 1, timepoint 0 hours
[2] = 0 h, replicate number 2, timepoint 0 hours
[3] = 12 h, replicate number 1, timepoint 12 hours
[4] = 18 h, replicate number 1, timepoint 18 hours
[5] = 24 h, replicate number 1, timepoint 24 hours
[6] = 24 h, replicate number 2, timepoint 24 hours
[7] = 6 h, replicate number 1, timepoint 6 hours
[8] = 6 h, replicate number 2, timepoint 6 hours
[9] = 12 h, replicate number 2, timepoint 12 hours
[10] = 18 h, replicate number 2, timepoint 18 hours
Further: unitless GR value; below 1 slowed growth and below 0 cell loss.

SMILES | Growth Rate (U2OS; [1]) | Growth Rate (U2OS; [3]) | Growth Rate (U2OS; [4]) | Growth Rate (U2OS; [5]) | Growth Rate (HEK-293T; [1]) | Growth Rate (HEK-293T; [2]) | Growth Rate (HEK-293T; [3]) | Growth Rate (HEK-293T; [4]) | Growth Rate (HEK-293T; [5]) | Growth Rate (HEK-293T; [6]) | Growth Rate (Fibroblast; [1]) | Growth Rate (Fibroblast; [2]) | Growth Rate (Fibroblast; [8]) | Growth Rate (Fibroblast; [3]) | Growth Rate (Fibroblast; [9]) | Growth Rate (Fibroblast; [4]) | Growth Rate (Fibroblast; [5]) | Growth Rate (U2OS; [7]) | Growth Rate (U2OS; [9]) | Growth Rate (HEK-293T; [10]) | other results
O=C(O)COc1cccc(-c2ocnc2-c2nc(-c3ccccc3)c(-c3ccccc3)o2)c1 | -0.56 | 0.74 | 0.88 | 1 | 0.53 | -0.17 | 0.79 | 0.67 | 0.9 | 0.98 | 0.04 | 0.64 | 0.07 | 0.59 | 0.91 | 0.64 | 0.59 |  |  |  | Growth Rate (U2OS; [2]): 0.7; Growth Rate (Fibroblast; [7]): 0.49
COC(=O)N1CCN(C(=O)Cc2ccc(Cl)c(Cl)c2)C(CN2CCCC2)C1.O=C(O)/C=C/C(=O)O (configuration not stated) |  | 0.75 |  |  | 1 |  |  |  |  |  |  | 0.83 | 0.71 |  |  |  |  | 0.36 | 0.54 |  | Growth Rate (U2OS; [8]): 0.4; Growth Rate (U2OS; [10]): 0.75; Growth Rate (U2OS; [6]): 0.76; Growth Rate (HEK-293T; [9]): 0.72
Cc1cnc(CNCC2(F)CCN(C(=O)c3ccc(F)c(Cl)c3)CC2)nc1 | -0.59 | 0.56 | 0.81 | 0.79 | 0.4 | 0.21 |  | 1 | 0.91 |  | 0.31 | 0.71 |  | 0.81 | 0.62 | 0.86 | 0.5 | 0.35 | 0.96 |  | Growth Rate (U2OS; [2]): 0.21; Growth Rate (U2OS; [8]): 0.86; Growth Rate (U2OS; [10]): 0.78; Growth Rate (U2OS; [6]): 0.94; Growth Rate (Fibroblast; [7]): 0.38
CCCCC[C@H](O)/C=C/[C@H]1CCC(=O)[C@@H]1CCCCCCC(=O)O | 0.47 | 0.66 | 0.5 | 0.96 | 0.81 | -0.24 | 0.56 | 0.7 | 0.77 | 0.67 | -0.34 | -0.08 |  |  |  |  | 0.96 | 0.51 |  | 0.73 | Growth Rate (HEK-293T; [7]): 0.64; Growth Rate (HEK-293T; [8]): 0.48; Growth Rate (HEK-293T; [9]): 0.7
N[C@](CC1c2ccccc2Oc2ccccc21)(C(=O)O)[C@H]1C[C@@H]1C(=O)O |  |  | 0.9 |  | 0.78 | -1 | 0.5 | 0.57 | 0.69 |  | 0.29 |  | 0.73 |  | 0.93 | 0.9 | 0.68 |  | 0.92 |  | Growth Rate (U2OS; [2]): 0.8; Growth Rate (HEK-293T; [7]): 0.42; Growth Rate (Fibroblast; [10]): 0.82; Growth Rate (Fibroblast; [6]): 0.88
Cl.O=C(O)c1cc(-c2ccc(C3CCNCC3)cc2)c2ccc(-c3ccc(C(F)(F)F)cc3)cc2c1 |  | 0.79 | 0.6 | 0.6 | -0.99 | -0.98 | 0.71 | 0.29 | 0.2 | 0.49 | -0.16 | -0.95 | 0.67 | -0.12 | 0.42 | -0.01 | 0.06 | 0.77 | 0.48 | 0.68 | Growth Rate (U2OS; [8]): 0.7; Growth Rate (U2OS; [10]): 0.48; Growth Rate (U2OS; [6]): 0.44; Growth Rate (Fibroblast; [7]): -0.7; Growth Rate (Fibroblast; [10]): 0.43; Growth Rate (Fibroblast; [6]): 0.23
CNc1nc(NCc2ncccn2)c2c(-c3ccc4ncccc4c3)c[nH]c2n1 | 0.67 |  | 0.27 | 0.4 | 0.21 | 0.76 | -0.16 | -0.23 | -0.25 |  | 0.14 | 0.3 |  | 0.36 |  | -0.14 | 0.06 |  | 0.95 | -0.28 | Growth Rate (U2OS; [10]): 0.56; Growth Rate (U2OS; [6]): 0.42; Growth Rate (HEK-293T; [7]): 0.37; Growth Rate (HEK-293T; [8]): 0.12; Growth Rate (HEK-293T; [9]): -0.1
Br.Oc1cc2c(cc1O)C(c1ccccc1)CNCC2 (configuration not stated) |  | 0.47 | 0.55 | 0.98 | 0.99 | 0.61 | 0.62 | 0.92 |  | 0.67 | 0.09 | -0.21 |  |  |  |  |  | 0.49 |  | 0.37 | Growth Rate (U2OS; [8]): 1; Growth Rate (U2OS; [10]): 0.99; Growth Rate (HEK-293T; [7]): 0.78; Growth Rate (HEK-293T; [8]): -0.1; Growth Rate (HEK-293T; [9]): 0.43
CCNC(=O)[C@H]1O[C@@H](n2cnc3c(N)ncnc32)[C@H](O)[C@@H]1O.O | -0.43 | 0.61 | 0.71 | 0.74 | -0.1 | -0.27 | 0.85 | 0.8 | 0.76 | 0.81 | -0.1 | 0.3 | 0.46 |  | 0.87 |  |  | 0.86 |  |  | Growth Rate (HEK-293T; [7]): 0.74
Cc1nc(C#Cc2cccnc2)cs1.Cl | 0 |  | 0.97 |  | 0.27 | 0.23 | 0.63 | 0.84 | 0.76 | 0.73 |  | 0.91 | 0.58 | 0.32 |  | 0.37 | 0.25 |  | 0.84 | 0.94 | Growth Rate (U2OS; [2]): 0.3; Growth Rate (U2OS; [8]): 0.72; Growth Rate (HEK-293T; [7]): 0.68; Growth Rate (HEK-293T; [9]): 0.87; Growth Rate (Fibroblast; [7]): 0.49
O=C1NC(=Nc2c(Cl)cccc2Cl)S/C1=C\c1ccc2nccnc2c1 |  | 0.33 | 0.55 | 0.63 | 0.36 | 0.37 | 0.15 | 0.07 | 0.26 | 0.15 | 0.9 | 0.72 | 0.79 | 0.09 | 0.32 | 0.4 | 0.39 | 0 | 0.54 | 0.05 | Growth Rate (U2OS; [2]): -0.91; Growth Rate (U2OS; [8]): 0.81; Growth Rate (U2OS; [10]): 0.57; Growth Rate (U2OS; [6]): 0.59; Growth Rate (HEK-293T; [7]): 0.34; Growth Rate (HEK-293T; [8]): 0.18; Growth Rate (HEK-293T; [9]): -0.06; Growth Rate (Fibroblast; [7]): 0.24; Growth Rate (Fibroblast; [10]): 0.61; Growth Rate (Fibroblast; [6]): 0.48
O=C(O)c1cccc(/C=C2/C[C@@H]3[C@@H](/C=C/[C@H](O)C4CCCCC4)[C@H](O)C[C@@H]3O2)c1 |  | 0.59 | 0.9 |  | -0.12 | -0.26 |  | 0.98 | 0.9 | 0.92 | -0.51 | -0.06 | 0.96 |  | 0.77 |  |  | 0.65 | 0.94 | 1 | Growth Rate (U2OS; [2]): 0.48; Growth Rate (U2OS; [8]): 0.71; Growth Rate (Fibroblast; [6]): 0.89
CCCN1CCO[C@H]2c3cc(O)ccc3OC[C@@H]21.Cl | 0.55 | 0.93 | 0.92 |  | 0.72 | -0.13 |  |  |  | 0.96 | 0.77 | 0.29 |  | 0.98 |  | 0.72 | 0.8 | 0.6 |  |  | 
COc1cc(Br)c(S(=O)(=O)Nc2ccc(C(F)(F)F)c(O[C@@H]3CCN(C)C3)c2)cc1OC |  |  | 0.61 | 0.77 | 0.96 |  |  |  |  |  |  |  | -0.63 | -0.19 | -0.22 | -0.12 | -0.01 | 0.02 |  | 0.94 | Growth Rate (U2OS; [2]): -1; Growth Rate (U2OS; [10]): 1; Growth Rate (HEK-293T; [8]): 0.09; Growth Rate (HEK-293T; [9]): 0.38; Growth Rate (Fibroblast; [7]): -0.5; Growth Rate (Fibroblast; [10]): 0.19; Growth Rate (Fibroblast; [6]): 0.1
